These results are taken from article PMC5933747 (PLoS ONE, 2018).

Data set [1] deals with mechanically-induced C-fiber action potential firing. Conditions: mouse skin-nerve preparation; cited from earlier work.
Data set [2] concerns the target T1, human NaV1.7 (Homo sapiens, UniProt Q15858). Nature of the data set: PatchXpress (PX) automated electrophysiology, human NaV1.7 in HEK293 cells. The format is cell-based. The following applies: PX platform, voltage protocol with 20% of channels inactivated, at least ten cells, two to three data points per concentration.
Another data set has as its target human NaV1.4 (Homo sapiens, UniProt P35499). Nature of the data set: PatchXpress (PX) automated electrophysiology, human NaV1.4. The format is cell-based. On the procedure: Human NaV (hNaV) stably transfected cell lines in HEK293 or CHO backgrounds and cell culture methods were as previously described. hNaV1.1-hNaV1.7 cells were obtained from Eurofins Pharma Discovery Services (St. Charles, MO), and hNaV1.8 cells were generated in house. Whole cell patch clamp, PatchXpress, and IWQ electrophysiology voltage protocols as well as DRG neuron isolation were carried out as previously described. NaV1.7-NaV1.5 chimeras were generated and evaluated in BacMam transduced U2-OS cells on the IWQ platform as previously described.

The target of the next data set is human NaV1.5 (Homo sapiens, UniProt Q14524). Nature of the data set: PatchXpress (PX) automated electrophysiology, human NaV1.5. Conditions: human; PX platform; at least ten cells, two to three data points per concentration. The format is cell-based.
For data set [3], the system named is TTX-S sodium channels in rat DRG neurons. The following applies: cited from earlier work.
For data set [4], the target named is T1, human NaV1.7. Nature of the data set: Manual whole cell patch clamp, human NaV1.7. The format is cell-based. Background: In patch-clamp work, channel activity is measured electrically.
Data set [5] deals with TTX-R sodium channels in rat DRG neurons. Conditions: cited from earlier work.

One may read the IC50 as the concentration that inhibits the measured activity by half.

Where “and” joins values, the source holds several entries; their conditions need not be identical. Equal entries are not always repeated.

T1 sequence (Q15858 whole entry): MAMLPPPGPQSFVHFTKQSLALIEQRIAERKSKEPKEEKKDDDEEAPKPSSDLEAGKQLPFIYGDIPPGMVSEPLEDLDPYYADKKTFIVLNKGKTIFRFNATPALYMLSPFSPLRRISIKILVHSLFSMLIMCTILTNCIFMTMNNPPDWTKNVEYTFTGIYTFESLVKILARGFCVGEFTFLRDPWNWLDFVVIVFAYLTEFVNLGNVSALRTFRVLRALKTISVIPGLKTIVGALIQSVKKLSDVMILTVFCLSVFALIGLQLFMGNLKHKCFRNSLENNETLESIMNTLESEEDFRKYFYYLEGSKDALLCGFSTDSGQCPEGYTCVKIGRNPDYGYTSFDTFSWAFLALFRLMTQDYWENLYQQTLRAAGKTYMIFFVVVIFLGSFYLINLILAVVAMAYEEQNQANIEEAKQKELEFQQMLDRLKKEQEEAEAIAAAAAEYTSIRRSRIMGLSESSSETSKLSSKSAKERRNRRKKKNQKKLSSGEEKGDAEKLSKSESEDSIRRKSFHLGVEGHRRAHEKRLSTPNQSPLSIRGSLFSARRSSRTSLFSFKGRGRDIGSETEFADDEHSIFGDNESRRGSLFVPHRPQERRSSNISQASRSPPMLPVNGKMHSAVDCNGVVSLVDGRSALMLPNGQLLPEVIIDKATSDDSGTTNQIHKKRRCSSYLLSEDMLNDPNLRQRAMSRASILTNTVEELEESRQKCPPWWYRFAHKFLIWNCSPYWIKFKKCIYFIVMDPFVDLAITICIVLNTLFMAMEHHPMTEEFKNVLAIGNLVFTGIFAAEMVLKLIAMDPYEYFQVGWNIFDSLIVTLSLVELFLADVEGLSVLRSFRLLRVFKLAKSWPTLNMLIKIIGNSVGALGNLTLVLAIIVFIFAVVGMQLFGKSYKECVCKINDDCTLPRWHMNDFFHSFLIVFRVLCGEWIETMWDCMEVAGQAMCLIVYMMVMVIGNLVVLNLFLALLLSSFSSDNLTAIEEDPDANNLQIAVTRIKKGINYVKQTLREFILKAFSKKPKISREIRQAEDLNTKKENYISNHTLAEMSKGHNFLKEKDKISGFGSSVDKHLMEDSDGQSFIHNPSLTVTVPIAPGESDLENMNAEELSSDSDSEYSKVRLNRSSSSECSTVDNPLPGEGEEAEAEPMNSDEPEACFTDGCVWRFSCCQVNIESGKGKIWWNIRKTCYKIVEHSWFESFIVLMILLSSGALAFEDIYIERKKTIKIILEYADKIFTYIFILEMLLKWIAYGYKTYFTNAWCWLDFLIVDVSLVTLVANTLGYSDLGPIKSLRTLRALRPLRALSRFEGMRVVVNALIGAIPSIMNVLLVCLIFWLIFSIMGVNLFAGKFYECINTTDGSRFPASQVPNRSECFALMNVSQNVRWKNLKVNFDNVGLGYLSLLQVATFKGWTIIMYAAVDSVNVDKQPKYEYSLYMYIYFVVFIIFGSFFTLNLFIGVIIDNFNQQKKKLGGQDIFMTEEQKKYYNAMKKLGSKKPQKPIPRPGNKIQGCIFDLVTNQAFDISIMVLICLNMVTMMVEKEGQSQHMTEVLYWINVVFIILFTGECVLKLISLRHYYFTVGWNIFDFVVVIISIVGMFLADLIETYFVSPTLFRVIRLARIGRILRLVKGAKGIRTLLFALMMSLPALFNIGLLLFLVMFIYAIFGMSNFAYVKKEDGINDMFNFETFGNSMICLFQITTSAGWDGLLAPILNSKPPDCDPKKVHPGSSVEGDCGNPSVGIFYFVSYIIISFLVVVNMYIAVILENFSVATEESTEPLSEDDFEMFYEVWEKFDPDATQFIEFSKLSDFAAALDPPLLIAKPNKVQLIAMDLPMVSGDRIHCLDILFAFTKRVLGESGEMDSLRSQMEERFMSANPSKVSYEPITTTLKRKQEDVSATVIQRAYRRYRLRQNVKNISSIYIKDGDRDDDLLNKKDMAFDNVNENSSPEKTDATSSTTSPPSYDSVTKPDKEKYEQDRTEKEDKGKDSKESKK
Sequence of human NaV1.4 (P35499 whole entry): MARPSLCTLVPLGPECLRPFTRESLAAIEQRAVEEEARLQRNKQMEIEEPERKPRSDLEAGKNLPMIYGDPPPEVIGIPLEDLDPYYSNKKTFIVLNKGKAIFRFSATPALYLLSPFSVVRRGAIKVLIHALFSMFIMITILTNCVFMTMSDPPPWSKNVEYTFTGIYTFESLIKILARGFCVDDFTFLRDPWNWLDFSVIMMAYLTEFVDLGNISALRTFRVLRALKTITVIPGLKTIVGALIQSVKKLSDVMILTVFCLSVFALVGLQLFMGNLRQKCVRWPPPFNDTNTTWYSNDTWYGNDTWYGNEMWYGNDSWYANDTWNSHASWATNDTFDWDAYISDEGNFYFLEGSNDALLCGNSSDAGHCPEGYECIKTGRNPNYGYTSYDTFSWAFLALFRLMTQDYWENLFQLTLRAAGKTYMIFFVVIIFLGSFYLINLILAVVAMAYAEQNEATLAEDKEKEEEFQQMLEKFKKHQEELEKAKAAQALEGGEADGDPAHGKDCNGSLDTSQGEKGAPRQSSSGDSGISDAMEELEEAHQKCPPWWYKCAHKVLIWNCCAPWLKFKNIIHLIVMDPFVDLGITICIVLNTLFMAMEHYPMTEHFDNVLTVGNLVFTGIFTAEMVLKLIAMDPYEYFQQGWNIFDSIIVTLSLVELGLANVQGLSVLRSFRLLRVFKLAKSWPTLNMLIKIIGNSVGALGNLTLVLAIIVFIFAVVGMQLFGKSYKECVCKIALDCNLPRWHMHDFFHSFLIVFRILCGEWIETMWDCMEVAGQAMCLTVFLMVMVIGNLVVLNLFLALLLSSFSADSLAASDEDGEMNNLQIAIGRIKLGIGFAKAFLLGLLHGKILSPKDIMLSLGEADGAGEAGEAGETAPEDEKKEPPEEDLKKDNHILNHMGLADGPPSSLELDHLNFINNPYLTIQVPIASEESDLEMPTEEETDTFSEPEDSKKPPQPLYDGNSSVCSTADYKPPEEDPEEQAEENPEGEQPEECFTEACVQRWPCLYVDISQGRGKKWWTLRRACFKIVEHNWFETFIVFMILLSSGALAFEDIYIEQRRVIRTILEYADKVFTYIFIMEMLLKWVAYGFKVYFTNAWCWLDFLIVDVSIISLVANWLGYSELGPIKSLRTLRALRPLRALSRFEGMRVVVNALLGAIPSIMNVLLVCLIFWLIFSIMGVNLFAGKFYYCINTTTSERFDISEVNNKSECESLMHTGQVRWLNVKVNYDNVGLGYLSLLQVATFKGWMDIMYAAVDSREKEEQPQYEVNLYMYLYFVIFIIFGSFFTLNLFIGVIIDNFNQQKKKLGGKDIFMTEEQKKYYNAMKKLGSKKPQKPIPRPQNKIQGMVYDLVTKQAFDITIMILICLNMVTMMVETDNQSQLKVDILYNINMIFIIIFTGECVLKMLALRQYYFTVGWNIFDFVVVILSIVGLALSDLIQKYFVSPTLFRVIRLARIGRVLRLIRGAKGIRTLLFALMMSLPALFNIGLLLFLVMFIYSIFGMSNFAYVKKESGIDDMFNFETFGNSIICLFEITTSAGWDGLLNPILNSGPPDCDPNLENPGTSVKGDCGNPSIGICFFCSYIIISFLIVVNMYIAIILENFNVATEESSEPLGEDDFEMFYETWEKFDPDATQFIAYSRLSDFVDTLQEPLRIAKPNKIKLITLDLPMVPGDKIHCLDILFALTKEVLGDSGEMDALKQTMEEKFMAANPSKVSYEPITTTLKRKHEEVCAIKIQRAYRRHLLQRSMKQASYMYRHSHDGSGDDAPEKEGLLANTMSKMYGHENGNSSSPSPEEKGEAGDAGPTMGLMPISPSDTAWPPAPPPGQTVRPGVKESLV

Take `COc1cc(-c2cc(F)cc(Cl)c2)c(F)cc1-n1c(=O)ccc2cc(S(=O)(=O)Nc3ccon3)ccc21` [AMG8379]: the C-fiber inhibition in data set [1] is recorded as 60%.

As to `C#CC[C@H](N)C(=O)N[C@@H](Cc1ccc(O)cc1)C(=O)N[C@H]1CSSC[C@@H]2NC(=O)[C@@H]3CSSC[C@@H](C(=O)N[C@@H](CCCNC(=N)N)C(=O)N[C@@H](CCCCN)C(=O)N[C@H](C(=O)N[C@H](C(N)=O)[C@@H](C)CC)[C@@H](C)CC)NC(=O)[C@H](Cc4c[nH]c5ccccc45)NC(=O)[C@H](CC(C)C)NC(=O)[C@H](CCCCN)NC(=O)[C@H](CSSC[C@H](NC(=O)[C@H]([C@@H](C)O)NC(=O)[C@H](Cc4c[nH]c5ccccc45)NC(=O)[C@H](CCCC)NC(=O)[C@H](Cc4c[nH]c5ccccc45)NC(=O)[C@H](CCCCN)NC(=O)[C@H](CCC(N)=O)NC1=O)C(=O)N[C@@H](CC(=O)O)C(=O)N[C@@H](CO)C(=O)N[C@@H](CCCCN)C(=O)N[C@@H](CCCNC(=N)N)C(=O)N[C@@H](C)C(=O)N3)NC(=O)[C@H](CCCNC(=N)N)NC(=O)[C@H](CC(C)C)NC(=O)CNC(=O)[C@H](CCC(=O)O)NC2=O` [Peptide 3, Pra-[Nle6]JzTx-V(1–29)], the concentration for half-maximal inhibition (IC50) against human NaV1.7 [2] was found to be 0.0012 µM; against human NaV1.4 (PX platform, at least ten cells, two to three data points per concentration), 0.0062 µM; against human NaV1.5, 1.09 µM. Moreover, at human NaV1.4 (PX platform IC50 ratio), the “selectivity for NaV1.7 over NaV1.4” value is given as 5 fold.

On to JzTx-V(1–29) [reference compound], for which the IC50 in data set [3] is 0.028 µM. At human NaV1.7 [4], the hNaV1.7 current blocked is 83 ± 2% and 83 ± 6%; the “reversal of NaV1.7 block by high frequency strong depolarizations to +100 mV” value is “partially reversed”. In addition, the IC50 in data set [5] was 0.03 µM.
